Results published in US20220273748A1, “PLANT FERMENT AND WEIGHT LOSS METHOD FOR USING THE SAME” (TCI CO., LTD., priority 2021, published 2022).
Where two headings read alike, the source gives them in different places.

Experiments:
PYY gene = assay: Expression level of PYY gene in NCI-H716 cells (qRT-PCR); type: cell-based; conditions: Homo sapiens, read-out: expression level of the PYY gene relative to the blank group
Description: Herein, the expression level of the gene (Gene ID: 5697) of the peptide tyrosine-tyrosine (PPY) protein in human colorectal adenocarcinoma NCI-H716 cells (purchased from the Bioresource Collection and Research Center (BCRC), number 60517; hereinafter referred to as NCI-H716 cells) treated with each of the compounds TCI-LTF-01, TCI-LTF-02, TCI-LTF-04, TCI-LTF-08, TCI-LTF-09, TCI-LTF-10, TCI-LTF-11, TCI-LTF-12, and TCI-LTF-14 that were identified in Example 7 was determined by using the RNA extraction kit, SuperScript® III Reverse Transcriptase, KAPA SYBR®FAST qPCR reagent kit, and quantitative PCR machine.
A cell culture medium used is a solution containing 20% of fetal bovine serum (FBS, purchased from Gibco, number 10438-026, US), 1% of antibiotic-antimycotic (purchased from Gibco, number 15240-062), 10 mM of HEPES buffer (purchased from Gibco, number 15630080), and 1 mM of sodium pyruvate (purchased from Gibco, number 11360070). The compounds TCI-LTF-01, TCI-LTF-02, TCI-LTF-04, TCI-LTF-08, TCI-LTF-09, TCI-LTF-10, TCI-LTF-11, TCI-LTF-12, and TCI-LTF-14 each was formulated into 100 mM of stock sample with the DMSO solvent.
First, the NCI-H716 cells were inoculated into a 6-well culture plate containing 2 mL of culture medium in a density of 1×10^5 cells per well, and cultured at 37° C. for 24 h. Next, the NCI-H716 cells were divided into a blank group and 9 experimental groups. Then, the cell culture medium in each group was replaced with 2 mL of experimental culture medium per well, and then cultured at 37° C. for 12 h. The experimental culture medium in the blank group was a cell culture medium with no treatment (that is, no additional compounds were added into the cell culture medium). The experimental culture medium in each of the 9 experimental groups was a cell culture medium containing […] of corresponding compound identified in Example 7, and the 9 compounds were: syringin (TCI-LTF-01), 1,5-di-o-caffroylquinic acid (TCI-LTF-02), luteolin (TCI-LTF-04), chlorogenic acid (TCI-LTF-08), dihydrocaffeic acid (TCI-LTF-09), caffeic acid (TCI-LTF-10), 4-hyderoxy-3-phenlylactic acid methyl ester (TCI-LTF-11), calceolarioside B (TCI-LTF-12), and 4-hydroxyphenolic acid (TCI-LTF-14). Herein, each of the 9 compounds was first formulated into 100 mM of stock sample with the DMSO solvent, and then added into the cell culture medium to give a final concentration of 100 μM in the cell culture medium. Each group was repeated for three times.
The cell membranes of the NCI-H716 cells treated in each group were broken with a cell lysis buffer to form a cell solution. Next, RNA of the 10 groups of cell solutions was extracted separately by using an RNA extraction reagent kit (purchased from Geneaid, Taiwan, Lot No. FC24015-G). Then, 1000 ng of the extracted RNA in each group was used as a template, and the extracted RNA was reverse transcribed into corresponding cDNA by the SuperScript® III reverse transcriptase (purchased from Invitrogene, USA, number 18080-051). Subsequently, the quantitative real-time reverse transcription polymerase chain reaction was carried out on the 10 groups of cDNA with the primers (SEQ ID NO: 15 to SEQ ID NO: 16) in Table 4 by using the ABI StepOnePlus™ Real-Time PCR system (Thermo Fisher Scientific, USA) and the KAPA SYBR FAST (purchased from Sigma, USA, number 38220000000) to observe the expression level of the PPY gene in the NCI-H716 cells in the 10 groups. The instrument setting conditions for the quantitative real-time reverse transcription polymerase chain reaction were 95° C. for 20 s, 95° C. for 3 s, 60° C. for 30 s, a total of 40 cycles, and gene quantification was carried out by the 2^−ΔCt method (using the m-ACTB gene as an internal reference gene). Herein, the quantitative real-time reverse transcription polymerase chain reaction with cDNA can indirectly quantify the expression level of the PYY protein encoded by the PPY gene. […]

[1] = test system: OP9 cells differentiated into fat cells; assay: Inhibition of lipid droplet accumulation in fat cells differentiated from OP9 cells (glycerol cell-based assay), isolated compounds; set-up: species or system mouse; conditions: final concentration 100 μM, 7 days, blank group = 100%
Source text: Herein, the content of glycerol in fat cells is used as a quantitative indicator to observe whether there is lipolysis.
A cell culture medium used is the α-minimum essential medium (α-MEM, Gibco, number 12000-022) containing 20% of fetal bovine serum (FBS. Gibco, number 10438-026) and 1% of antibiotic-antimycotic (Gibco, number 15240-062).
First, 8×10^4 OP9 cells (purchased from the American Type Culture Collection, ATCC®, number ATCC CRL-2749) were inoculated into a 24-well culture plate containing 500 μL of cell culture medium per well, and cultured at 37° C. for 7 days. During the 7-day cell culture, the cell culture medium was changed every 3 days. After the 7 days of culture, the formation of lipid droplets in the OP9 cells was observed by using a microscope (ZEISS; magnification 400×) to confirm that the OP9 cells were fully differentiated into fat cells for subsequent experiments.
Then, the differentiated fat cells were divided into a blank group and 5 experimental groups. The cell culture medium in each group was replaced with 500 μL of experimental medium per well, and then cultured at 37° C. for 7 days. During the 7-day culture, the experimental medium was replaced with a fresh 500 μL one every 3 days. The experimental culture medium in the blank group was just a cell culture medium (without other compounds), while the experimental culture medium in each of the 5 experimental group was a cell culture medium containing […] of corresponding compound identified in Example 7, and the 5 compounds were: syringin (TCI-LTF-01), 1,5-di-o-caffroylquinic acid (TCI-LTF-02), quercetin-3-glucuronide (TCI-LTF-03), gallic acid (TCI-LTF-06), and chlorogenic acid (TCI-LTF-08). […]
The content of glycerol was determined by using a glycerol cell-based assay kit (purchased from Cayman, USA, product number 10011725) according to the following steps. The experimental culture medium (that is, the experimental culture medium in which fat cells had been cultured, without the fat cells) in each group was collected, 25 μL of the experimental culture medium was transferred into a new 96-well culture plate, 100 μL of reconstituted free glycerol assay reagent was added into each well to react at room temperature for 15 min, and the absorbance OD540 nm of each group was read from the 96-well culture plate by an ELISA reader, to quantify the content of glycerol released into the experimental culture medium through lipolysis, as shown in FIG. 31. […] The obtained results were analyzed by student t-test using Excel software to determine whether there is a statistically significant difference between two sample groups. […]

[2] = NCI-H716 cells, final concentration 100 μM, 12 h, blank group = 1.0

O=C(/C=C/c1ccc(O)c(O)c1)OC[C@H]1O[C@@H](OCCc2ccc(O)c(O)c2)[C@H](O)[C@@H](O)[C@@H]1O [TCI-LTF-12, Calceolarioside B]
fold induction at 100 µM (PYY gene; [2]): 5.6

O=C(/C=C/c1ccc(O)c(O)c1)O[C@@H]1C[C@](O)(C(=O)O)C[C@@H](O)[C@H]1O [TCI-LTF-08, Chlorogenic acid]
lipid droplet content [1]: 69.3%
fold induction at 100 µM (PYY gene; [2]): 5.3

O=C(O)CCc1ccc(O)c(O)c1 [TCI-LTF-09, Dihydrocaffeic acid]
fold induction at 100 µM (PYY gene; [2]): 4.9

O=C(O)c1ccc(O)cc1 [TCI-LTF-14, 4-Hydroxyphenolic acid]
fold induction at 100 µM (PYY gene; [2]): 3.6

O=C(/C=C/c1ccc(O)c(O)c1)O[C@@H]1C[C@](OC(=O)/C=C/c2ccc(O)c(O)c2)(C(=O)O)C[C@@H](O)[C@H]1O [TCI-LTF-02, 1,5-Di-O-caffroylquinic acid]
lipid droplet content [1]: 75.2%
fold induction at 100 µM (PYY gene; [2]): 2.3

COC(=O)C(O)Cc1ccc(O)cc1 (stereo not shown) [TCI-LTF-11, 4-Hyderoxy-3-phenlylactic acid methyl ester]
fold induction at 100 µM (PYY gene; [2]): 4.5

O=c1cc(-c2ccc(O)c(O)c2)oc2cc(O)cc(O)c12 [TCI-LTF-04, Luteolin]
fold induction at 100 µM (PYY gene; [2]): 3.6

COc1cc(/C=C/CO)cc(OC)c1O[C@@H]1O[C@H](CO)[C@@H](O)[C@H](O)[C@H]1O [TCI-LTF-01, Syringin]
lipid droplet content [1]: 64.8%
fold induction at 100 µM (PYY gene; NCI-H716, 12 h): 6.2

O=C(O)c1cc(O)c(O)c(O)c1 [TCI-LTF-06, Gallic acid]
lipid droplet content [1]: 72.4%

O=C(O)/C=C/c1ccc(O)c(O)c1 [TCI-LTF-10, Caffeic acid]
fold induction at 100 µM (PYY gene; [2]): 3.5
